These results are taken from patent publication US12492403B2, “Aptamers and the use thereof in the treatment of cancer” (FUNDACIÓN PARA LA INVESTIGACIÓN BIOMÉDICA DEL HOSPITAL …, priority 2018, dated 2025).

Data set [1] concerns MCF7 cells. In words: MTT activity assay, aptamers transfected with Lipofectamine 2000. The class given is cell-based, human. As to conditions: MCF7, aptamer 250 nM, 48 hours after transfection. How it is done: (§1) FIG. 3. Effect of the aptamers on MTT activity of MCF7 and MDA-MB-231 cells. The cells were seeded in 96-well plates at a density of 10^4 cells/well. After 16-24 hours, they were transfected with aptamers apMNKQ1, apMNKQ2, apMNKQ3, and apMNKQ4 at 250 nM for 48 hours after which MTT activity assays were performed. The bars represent the mean±SEM of 3-6 independent experiments (*p<0.05, **p<0.01, and ***p<0.001 with respect to the control aptamer AT).
(§2) FIGS. 8A-8C. Effect of aptamer apMNKQ2 on MTT activity of breast cell lines. MCF7, MDA-MB-231, and MDA-MB-468 cells were seeded in 96-well plates at a density of 10^4 cells/well. […] The graphs represent the means±SEM of 3 independent experiments (*p<0.05, **p<0.01, and ***p<0.001 with respect to the control AT).
(§3) The Lipofectamine™ 2000 system (Invitrogen, USA) was used to treat cells with the different aptamers. To prepare the DNA-lipofectamine complex, lipofectamine and DNA were separately diluted in opti-MEM (Gibco, USA) and left to incubate at room temperature for 5 minutes. They were then mixed to form lipofectamine-DNA complexes and incubated for 20 minutes at room temperature. Finally, the mixture was added to the cells that had been washed twice with antibiotic-free medium to prevent the interference thereof with lipofectamine. The cells were incubated at 37° C. for 5 hours, after which the reagent was removed and a complete medium was added.
(§4) MTT activity. The cells were seeded in 96-well plates and after having been transfected, the culture medium was removed and 100 μL/well of MTT at 1 mg/ml in culture medium were added. The plates were incubated for 90 minutes in an incubator with a moisture-saturated environment at 37° C. and 5% CO2/[…] and 100 μL/well of a lysis solution (10% SDS and 10 mM HCl) were added for dissolving the crystals. After 48 hours, the reduction of MTT was determined by means of spectrophotometry in Infinite F200 (TECAN, Switzerland) at 540 nm.
(§5) The results were expressed as the percentage of viability with respect to the control or in absorbance units.

Data set [2] has as its system MDA-MB-231 cells. The data set is described as above. Type of data set: cell-based, human. Conditions: MDA-MB-231, aptamer 250 nM, 48 hours after transfection. The protocol:
as §1, §2, §3, §4, §5

Data set [3] relates to MNK1. In words: Recognition of the two isoforms of MNK1 by precursor and truncated aptamers. Type of data set: binding.
Data set [4] deals with AKT. In words: Western blot of phosphorylation, combined therapy study. The class given is cell-based, human. As to conditions: MDA-MB-231 and MCF7 cells, 24 hours. The protocol: (§6) FIG. 22A & 22B. Combined therapy studies of apMNKQ2 and everolimus. […] The different antibodies used are indicated.
(§7) Seventy-two hours after treatment, MTT activity was measured.
In general terms: Immunoblotting shows a protein as a band on a membrane.

The test system of data set [5] is eIF4E. The data set is described as above. The class given is cell-based, human. Conditions: MDA-MB-231 and MCF7 cells, 24 hours. How it is done: as §6, §7
Data set [6] relates to ribosomal protein S6. Described as above. The class given is cell-based, human. Conditions: MDA-MB-231 and MCF7 cells, 24 hours. How it is done:
as §6, §7

The subject of data set [7] is MCF7 cells. As to conditions: cells with IC50 greater than 1 nM are considered resistant; cited from earlier work.
The test system of data set [8] is MDA-MB-231 cells. Conditions: cells with IC50 greater than 1 nM are considered resistant; cited from earlier work.
Data set [9] has as its system DNase I. As to conditions: 1 unit of DNase I, 5 minutes at 37° C., same assay conditions (Garcia-Recio, Pinto-Diez et al. 2016); cited from earlier work.

In the case of “5′-GGGTGGTATGGCGCGTTGGCCC-3′ (DNA, backbone and methylation of C not given here; further chemistry not fully specified) [apMNKQ4, 22-nucleotide aptamer designed from apMNK2FT]”, the “effect on MTT activity” value in [1] is reported as “partial effect”. Besides, the “inhibition of MTT activity” value in data set [2] is “about 15%”.
Take “5′-TTTTTGGGGTGGGCGGGCGGGGGTGGGGGTGGTATGGCGCGTTGGCCC-3′ (DNA, backbone and methylation of C not given here; further chemistry not fully specified) [apMNK2FT, truncated 48-nucleotide aptamer derived from precursor aptamer apMNK2F]”: the “recognition of the two isoforms of MNK1 (MNK1a, MNK1b)” value in data set [3] is reported as “recognized both isoforms in a similar manner”.
On to “5′GGGTGGGGGTGGT-3′ (DNA, backbone not given here; further chemistry not fully specified) [apMNKQ3, 13-nucleotide aptamer designed from apMNK2FT]”, for which the “effect on MTT activity” value in data set [1] is listed as “partial effect”. Also, the “inhibition of MTT activity” value in [2] was “about 15%”.
The matching figures for “5′TGGGGTGGGCGGGCGGGG-3′ (DNA, backbone and methylation of C not given here; further chemistry not fully specified) [apMNKQ1, 18-nucleotide aptamer designed from apMNK2FT based on G-quadruplex formation]”: “partial effect” and 30%.
As for `CO[C@H]1C[C@@H]2CC[C@@H](C)[C@@](O)(O2)C(=O)C(=O)N2CCCC[C@H]2C(=O)O[C@H]([C@H](C)C[C@@H]2CC[C@@H](OCCO)[C@H](OC)C2)CC(=O)[C@H](C)/C=C(\C)[C@@H](O)[C@@H](OC)C(=O)[C@H](C)C[C@H](C)/C=C/C=C/C=C/1C` [everolimus, 40-O-(2-hydroxyethyl) derivative of sirolimus, reference compound], in data set [4], the “phosphorylation of AKT” value was “increased”. In [5], the “phosphorylation of eIF4E” value is given as “increased”. The “phosphorylation of ribosomal protein S6 (dependent on mTOR activity)” value in data set [6] is on record as “inhibiting mTOR”. Further, the “sensitivity of the cell line to the drug” value in data set [7] and in [8] was “resistant” throughout.

B1: apMNK2F: precursor (parental) aptamer against MNK1, described in Garcia-Recio, Pinto-Diez et al. 2016 (nucleic acid)
DNA: GCGGATGAAGACTGGTGTGGGGTGGGCGGGCGGGGGTGGGGGTGGTATGGCGCGTTGGCCCTAAATACGAGCAAC
modifications: DNA, backbone and methylation of C not given here; further chemistry not fully specified
As for B1, in data set [3], the “recognition of the two isoforms of MNK1 (MNK1a, MNK1b)” value is “higher affinity for MNK1b”. Further, the stability in data set [9] is on record as 0%.
